Test results as given in patent publication US8470771B2, “Method and medicament for inhibiting the infection of influenza virus” (priority 2007, dated 2013).
Marks after values point to notes of the source that are not given here.

Columns and labels:
[1] = test system: QH-WSN virus (avian influenza virus H5N1); conditions: for IC50: QH-WSN virus (avian influenza virus); for Inhibitory rates (%) of QH-WSN: QH-WSN virus (avian influenza virus, 200 μM)
[2] = test system: WSN virus (human influenza virus H1N1); conditions: for IC50: WSN virus (human influenza virus); for Inhibitory rates (%) of WSN: WSN virus (human influenza virus, 100 μM)
[3] = test system: JX virus (human influenza virus H3N2); conditions: for IC50: JX virus (human influenza virus); for Inhibitory rates (%) of JX: JX virus (human influenza virus, 200 μM)
[4] = test system: 3 subtypes of virus i.e. H5N1, H6N1 and H9N2; conditions: read-out: 50% effect concentration (EC50); cited from earlier work
influenza virus = assay type: cell-based

In the case of `CC[C@H](C)[C@H](NC(=O)[C@H](CCCCN)NC(=O)[C@H](CCC(N)=O)NC(=O)[C@@H](NC(=O)[C@H](CO)NC(=O)[C@H](CCC(=O)O)NC(=O)[C@@H](N)CCCCN)[C@@H](C)O)C(=O)N[C@H](C(=O)N[C@@H](CC(=O)O)C(=O)NCC(=O)N[C@H](C(=O)N[C@H](C(=O)N[C@@H](CC(N)=O)C(=O)N[C@@H](CCCCN)C(=O)N[C@H](C(=O)N[C@@H](CC(N)=O)C(=O)N[C@@H](CO)C(=O)N[C@H](C(=O)N[C@H](C(=O)N[C@@H](CC(=O)O)C(=O)N[C@@H](CCCCN)C(=O)O)[C@@H](C)CC)[C@@H](C)CC)C(C)C)[C@@H](C)O)C(C)C)[C@@H](C)CC` [HR1-1], the IC50 [1] is reported as 32.7 ± 6.5 µM, the IC50 [2] is reported as 29.3 ± 5.7 µM and the IC50 [3] is reported as 38.2 ± 7.8 µM.
`CC[C@H](C)[C@H](NC(=O)[C@H](C)NC(=O)[C@H](CCCCN)NC(=O)[C@H](CCC(N)=O)NC(=O)[C@@H](NC(=O)[C@H](CO)NC(=O)[C@H](CCC(=O)O)NC(=O)[C@@H](N)CCCCN)[C@@H](C)O)C(=O)N[C@@H](CC(=O)O)C(=O)NCC(=O)N[C@H](C(=O)N[C@H](C(=O)N[C@@H](C)C(=O)N[C@@H](C)C(=O)N[C@@H](C)C(=O)N[C@@H](C)C(=O)N[C@@H](CC(N)=O)C(=O)N[C@@H](CCCCN)C(=O)N[C@H](C(=O)N[C@@H](CC(N)=O)C(=O)N[C@@H](CO)C(=O)N[C@H](C(=O)N[C@H](C(=O)N[C@@H](CC(=O)O)C(=O)N[C@@H](CCCCN)C(=O)O)[C@@H](C)CC)[C@@H](C)CC)C(C)C)[C@@H](C)O)C(C)C` [HR1-2] showed an IC50 [1] of 104 ± 28.6 µM, an IC50 [2] of 110 ± 28.2 µM and an IC50 [3] of 112 ± 19.5 µM.
In the case of `CC[C@H](C)[C@H](NC(=O)[C@H](CCCNC(=N)N)NC(=O)[C@@H](N)CCCNC(=N)N)C(=O)N[C@@H](CCC(=O)O)C(=O)N[C@@H](CC(N)=O)C(=O)N[C@@H](CC(C)C)C(=O)N[C@@H](CC(N)=O)C(=O)N[C@@H](CCCCN)C(=O)N[C@@H](CCCCN)C(=O)N[C@@H](CCSC)C(=O)N[C@@H](CCC(=O)O)C(=O)N[C@@H](CC(=O)O)C(=O)NCC(=O)N[C@@H](Cc1ccccc1)C(=O)N[C@@H](CC(C)C)C(=O)N[C@@H](CC(=O)O)C(=O)N[C@H](C(=O)N[C@@H](Cc1c[nH]c2ccccc12)C(=O)N[C@H](C(=O)N[C@@H](Cc1ccc(O)cc1)C(=O)O)[C@@H](C)O)C(C)C` [HR2A], the “Inhibitory rates (%) of QH-WSN” value [1] is reported as 56.9* %, the “Inhibitory rates (%) of WSN” value [2] is reported as 42.0** % and the “Inhibitory rates (%) of JX” value [3] is reported as 51.4* %.
For `CSCC[C@H](NC(=O)[C@H](CC(C)C)NC(=O)[C@@H](NC(=O)[C@H](CC(C)C)NC(=O)[C@H](CC(C)C)NC(=O)[C@H](CCC(=O)O)NC(=O)[C@H](C)NC(=O)[C@@H](N)CC(N)=O)C(C)C)C(=O)N[C@@H](CCC(=O)O)C(=O)N[C@@H](CC(N)=O)C(=O)N[C@@H](CCC(=O)O)C(=O)N[C@@H](CCCNC(=N)N)C(=O)N[C@H](C(=O)N[C@@H](CC(C)C)C(=O)N[C@@H](CC(=O)O)C(=O)N[C@@H](Cc1ccccc1)C(=O)N[C@@H](Cc1c[nH]cn1)C(=O)N[C@@H](CC(=O)O)C(=O)N[C@@H](CO)C(=O)N[C@@H](CC(N)=O)C(=O)N[C@H](C(=O)N[C@@H](CCCCN)C(=O)N[C@@H](CC(N)=O)C(=O)O)C(C)C)[C@@H](C)O` [HR2B], the “Inhibitory rates (%) of QH-WSN” value [1] was 63.8* %, the “Inhibitory rates (%) of WSN” value [2] was 43.0** % and the “Inhibitory rates (%) of JX” value [3] was 15.2* %.
In the case of `CC(C)C[C@H](NC(=O)[C@H](CCCNC(=N)N)NC(=O)[C@@H](NC(=O)[C@H](CCCCN)NC(=O)[C@H](CC(=O)O)NC(=O)[C@H](Cc1ccc(O)cc1)NC(=O)[C@H](CC(C)C)NC(=O)[C@H](CC(N)=O)NC(=O)[C@H](CCCCN)NC(=O)[C@@H](NC(=O)[C@H](CC(N)=O)NC(=O)[C@H](CO)NC(=O)[C@H](CC(=O)O)NC(=O)[C@H](Cc1c[nH]cn1)NC(=O)[C@@H](N)Cc1ccccc1)C(C)C)C(C)C)C(=O)N[C@@H](CCC(N)=O)C(=O)O` [HR2C], the “Inhibitory rates (%) of QH-WSN” value [1] is reported as 53.1* %, the “Inhibitory rates (%) of WSN” value [2] is reported as 29.6** % and the “Inhibitory rates (%) of JX” value [3] is reported as 17.1* %.
For `CC(=O)N[C@H]1[C@H]([C@H](O)[C@H](O)CO)OC(C(=O)O)=C[C@@H]1N=C(N)N` [Zanamivir], the EC50 [4] is listed as 8.5 to 14 µM.
In the case of KLPDDFMGCV, the “inhibition of the infection of influenza virus” value (influenza virus) is reported as “did not inhibit the infection of influenza virus”.
